From patent US10174000B2, “Bicyclic-fused heteroaryl or aryl compounds as IRAK4 modulators” (PFIZER INC., priority 2015, dated 2019)
Values belong to the compound of their own block, whether it stands above or below them.

What was measured:
[1] = target: human IRAK4 FL (Full Length), phosphorylated (Homo sapiens (Human), UniProt Q9NWZ3); assay: IRAK4 Enzymatic DELFIA Assay, Protocol A; format: biochemical; conditions: 600 μM ATP (KM); full-length phosphorylated recombinant human IRAK4
Method: IRAK4 Enzymatic DELFIA Assay, Protocol A.
This is an in vitro assay to measure IRAK4 enzymatic activity utilizing the DELFIA (Dissociation-Enhanced Lanthanide Fluorescent Immunoassay, Perkin-Elmer) platform, with the human IRAK4 FL (Full Length) construct to characterize IRAK4 inhibitor and control compounds at 600 μM ATP (KM). The final amount of enzyme in the assay is 0.1 nM IRAK4 FL, final concentration of substrate is 50 nM, and final concentration of DMSO is 2.5%.
The test compound was solubilized in DMSO to a stock concentration of 30 mM. The dose response plates were prepared with a 4 mM primary compound concentration (40-fold multiple of the final in-assay concentration), and diluted in DMSO in a four-fold series for a total of 11 data points. 1 μL of the compound dilution plate is spotted into ultra-clear polypropylene, 384-well, U-bottom plates (Corning Life Sciences).
To begin the assay, 19 μL of reaction mixture containing 20 mM HEPES pH=7.5, 5 mM MgCl2, 0.0025% Brij-35, 600 μM ATP, 0.21 nM Full-length phosphorylated recombinant human IRAK4 (GenBank ID AF445802) are aliquoted into the polypropylene, 384-well, U-bottom plates containing 1 μL of test compound, mixed briefly and incubated for 20 minutes at room temperature (RT). Then, 20 μL of 20 mM HEPES pH=7.5, 5 mM MgCl2, 0.0025% Brij-35, 600 μM ATP, and 100 nM ERM-biotinylated peptide (AGAGRDKYKTLRQIR) is added to start the reaction. The reaction is incubated for 60 minutes at RT and stopped by the addition of 20 μL 0.3M EDTA.
(§1) 50 μL of the reaction mixture was transferred to a streptavidin-coated detection plate (DELFIA streptavidin coated plates, 384-well, white plates, Perkin-Elmer Life Sciences) and incubated for 30 minutes at RT. The plates were washed 4× with 75 μL per well of PBS containing 0.05% Tween-20. Plates were then incubated with 50 μL per well of antibody cocktail of Anti-pERM antibody at 0.125 μg/mL (Cell Signaling Technology), plus Anti-Rabbit IgG EuN1 at 0.25 μg/ml (Perkin-Elmer Life Sciences) in a solution of 10 mM MOPS pH=7.5, 150 mM NaCl, 0.05% Tween-20, 0.02% NaN3, 1% BSA, 0.1% Gelatin for 45 minutes. The plates were then washed as before. 50 μL per well of DELFIA Enhancement Solution (Perkin-Elmer Life Sciences) was added to the plate and incubated for 15 minutes at RT prior to being read on an Envision Model 2104 multi-label reader using a 340 nm excitation wavelength and a […] emission wavelength for detection.

[2] = target: inactive, unphosphorylated (0-phos), human IRAK4 FL (Full Length) (Homo sapiens (Human), UniProt Q9NWZ3); assay: IRAK4 Enzymatic DELFIA Assay, Protocol B; format: biochemical; conditions: 600 μM ATP (KM), full-length recombinant human IRAK4
inactive, unphosphorylated (0-phos), human IRAK4 FL (Full Length), sequence (Q9NWZ3 whole entry): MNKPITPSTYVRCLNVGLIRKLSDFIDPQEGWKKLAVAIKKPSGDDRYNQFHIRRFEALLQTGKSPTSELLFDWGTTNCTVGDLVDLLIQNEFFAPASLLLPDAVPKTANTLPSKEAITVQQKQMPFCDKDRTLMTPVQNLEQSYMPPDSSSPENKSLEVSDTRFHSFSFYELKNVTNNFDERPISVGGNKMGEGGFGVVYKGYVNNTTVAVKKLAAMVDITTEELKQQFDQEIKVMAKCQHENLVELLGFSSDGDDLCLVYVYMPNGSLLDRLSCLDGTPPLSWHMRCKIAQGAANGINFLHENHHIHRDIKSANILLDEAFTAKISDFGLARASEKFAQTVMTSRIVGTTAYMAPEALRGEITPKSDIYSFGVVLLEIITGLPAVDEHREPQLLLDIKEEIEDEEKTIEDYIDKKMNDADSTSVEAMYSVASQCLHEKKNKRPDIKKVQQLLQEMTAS
Method: IRAK4 Enzymatic DELFIA Assay, Protocol B.
The test compound is solubilized in DMSO to a stock concentration of 30 mM. The dose response plates were prepared with a 4 mM primary compound concentration, serialized in DMSO and spotted (1 μL) into 384-well polypropylene plates as before.
20 uL of 20 mM HEPES pH=7.5, 5 mM MgCl2, 0.0025% Brij-35, 600 μM ATP, and 100 nM ERM-biotinylated peptide (AGAGRDKYKTLRQIR) was added to start the reaction, which was run for 90 minutes at RT and stopped by the addition of 20 μL 0.3M EDTA.
as §1

human IRAK4 FL (Full Length), phosphorylated, sequence (Q9NWZ3 whole entry): as above

- IC50 [1]: 2100 nM
- IC50 [2]: 190 nM
SMILES: CC(C)Oc1cc2c(OC[C@@H]3CCC(=O)N3)ncc(-c3nc(CO)c[nH]3)c2cc1C(N)=O [Example 8, 4-[4-(Hydroxymethyl)-1H-imidazol-2-yl]-1-{[(2S)-5-oxopyrrolidin-2-yl]methoxy}-7-(propan-2-yloxy)isoquinoline-6-carboxamide]

- IC50 [1]: > 100000 nM
- IC50 [2]: 6500 nM
SMILES: CC[C@@H]1CC(=O)N[C@@H]1COc1ncc(NS(=O)(=O)c2c[nH]cn2)c2cc(C(N)=O)c(OC(C)C)cc12 [Example 12, 1-{[(2S,3R)-3-Ethyl-5-oxopyrrolidin-2-yl]methoxy}-4-[(1H-imidazol-4-ylsulfonyl)amino]-7-(propan-2-yloxy)isoquinoline-6-carboxamide]

- IC50 [1]: 112 nM
- IC50 [2]: 10 nM
SMILES: CC(C)Oc1cc2c(OC[C@@H]3CCC(=O)N3)ncc(-c3ccn(C)n3)c2cc1C(N)=O [Example 4, 4-(1-Methyl-1H-pyrazol-3-yl)-1-{[(2S)-5-oxopyrrolidin-2-yl]methoxy}-7-(propan-2-yloxy)isoquinoline-6-carboxamide]

- IC50 [1]: > 100000 nM
- IC50 [2]: 5700 nM
SMILES: CC[C@@H]1CC(=O)N[C@@H]1COc1ncc(NS(=O)(=O)c2ccccc2)c2cc(C(N)=O)c(OC(C)C)cc12 [Example 10, 1-{[(2S,3R)-3-ethyl-5-oxopyrrolidin-2-yl]methoxy}-4-[(phenylsulfonyl)amino]-7-(propan-2-yloxy)isoquinoline-6-carboxamide]

- IC50 [1]: 57 nM
- IC50 [2]: 3.2 nM
SMILES: Cc1nc(-c2cnc(OC[C@@H]3CCC(=O)N3)c3cc(OC(C)C)c(C(N)=O)cc23)oc1C [Example 7, 4-(4,5-Dimethyl-1,3-oxazol-2-yl)-1-{[(2S)-5-oxopyrrolidin-2-yl]methoxy}-7-(propan-2-yloxy)isoquinoline-6-carboxamide]

- IC50 [1]: 29000 nM
- IC50 [2]: 15000 nM
SMILES: CC[C@@H]1CC(=O)N[C@@H]1COc1ncc(NS(=O)(=O)c2cn(C)c(C)n2)c2cc(C(N)=O)c(OC(C)C)cc12 [Example 14, 4-{[(1,2-Dimethyl-1H-imidazol-4-yl)sulfonyl]amino}-1-{[(2S,3R)-3-ethyl-5-oxopyrrolidin-2-yl]methoxy}-7-(propan-2-yloxy)isoquinoline-6-carboxamide]

- IC50 [1]: 5.4 nM
- IC50 [2]: 0.6 nM
SMILES: CC(C)Oc1cc2c(OC[C@H]3NC(=O)[C@@H](F)C34CC4)nccc2cc1C(N)=O [Example 19, 1-(((4S,7S)-7-fluoro-6-oxo-5-azaspiro[2.4]heptan-4-yl)methoxy)-7-isopropoxyisoquinoline-6-carboxamide]

- IC50 [1]: 20.7 nM
- IC50 [2]: 1.2 nM
SMILES: CC(C)Oc1cc2c(OC[C@H]3NC(=O)[C@H](F)C34CC4)nccc2cc1C(N)=O [Example 17, 1-(((4S,7R)-7-fluoro-6-oxo-5-azaspiro[2.4]heptan-4-yl)methoxy)-7-isopropoxyisoquinoline-6-carboxamide]

- IC50 [1]: 188 nM
- IC50 [2]: 4 nM
SMILES: CC(C)Oc1cc2c(OC[C@@H]3CCC(=O)N3)ncc(-c3ncco3)c2cc1C(N)=O [Example 2, 4-(1,3-Oxazol-2-yl)-1-{[(2S)-5-oxopyrrolidin-2-yl]methoxy}-7-(propan-2-yloxy)isoquinoline-6-carboxamide]

- IC50 [1]: 3.7 nM
- IC50 [2]: 1.1 nM
SMILES: CC(C)Oc1cc2c(OC[C@@H]3CCC(=O)N3)ncc(-c3cnn(C)c3)c2cc1C(N)=O [Example 5, 4-(1-methyl-1H-pyrazol-4-yl)-1-{[(2S)-5-oxopyrrolidin-2-yl]methoxy}-7-(propan-2-yloxy)isoquinoline-6-carboxamide]

Second part, the compound before the results:

SMILES: CC[C@@H]1[C@H](F)C(=O)N[C@@H]1COc1cccc2cc(C(N)=O)c(OC)cc12 [Example 27, 5-(((2S,3S,4S)-3-ethyl-4-fluoro-5-oxopyrrolidin-2-yl)methoxy)-3-methoxy-2-naphthamide]
- IC50 [1]: 0.8 nM
- IC50 [2]: 0.1 nM

SMILES: CC[C@@H]1[C@H](F)C(=O)N[C@@H]1COc1cccc2cc(C(N)=O)c(OC)nc12 [Example 1, 8-{[(2S,3S,4S)-3-Ethyl-4-fluoro-5-oxopyrrolidin-2-yl]methoxy}-2-methoxyquinoline-3-carboxamide]
- IC50 [1]: 7.5 nM
- IC50 [2]: 2 nM

SMILES: COc1cc2c(OC[C@@]34C[C@@H]3CC(=O)N4)nccc2cc1C(N)=O [Example 31, 7-methoxy-1-{[(1R,5R)-3-oxo-2-azabicyclo[3.1.0]hex-1-yl]methoxy}isoquinoline-6-carboxamide]
- IC50 [1]: > 100000 nM
- IC50 [2]: 1200 nM

SMILES: COc1cc2c(OC[C@@H]3NC(=O)[C@@H](F)C34CC4)nccc2cc1C(N)=O [Example 22, 1-(((4R,7S)-7-fluoro-6-oxo-5-azaspiro[2.4]heptan-4-yl)methoxy)-7-methoxyisoquinoline-6-carboxamide]
- IC50 [1]: 26000 nM
- IC50 [2]: 1700 nM

SMILES: CC[C@@H]1[C@H](F)C(=O)N[C@@H]1COc1cncc2cc(C(N)=O)c(OC)cc12 [Example 26, 4-(((2S,3S,4S)-3-ethyl-4-fluoro-5-oxopyrrolidin-2-yl)methoxy)-6-methoxyisoquinoline-7-carboxamide]
- IC50 [1]: 7.7 nM
- IC50 [2]: 0.3 nM

SMILES: CC(C)Oc1cc2c(OC[C@@H]3NC(=O)[C@H](F)C34CC4)nccc2cc1C(N)=O [Example 18, 1-(((4R,7R)-7-fluoro-6-oxo-5-azaspiro[2.4]heptan-4-yl)methoxy)-7-isopropoxyisoquinoline-6-carboxamide]
- IC50 [1]: 16000 nM
- IC50 [2]: 870 nM

SMILES: CC[C@@H]1[C@H](F)C(=O)N[C@@H]1COc1ncc(N)c2cc(C(N)=O)c(OC)cc12 [Example 15, 4-Amino-1-{[(2S,3S,4S)-3-ethyl-4-fluoro-5-oxopyrrolidin-2-yl]methoxy}-7-methoxyisoquinoline-6-carboxamide]
- IC50 [1]: 2.2 nM
- IC50 [2]: 0.5 nM

SMILES: CC(C)Oc1cc2c(OC[C@@H]3NC(=O)[C@@H](F)C34CC4)nccc2cc1C(N)=O [Example 16, 1-(((4R,7S)-7-fluoro-6-oxo-5-azaspiro[2.4]heptan-4-yl)methoxy)-7-isopropoxyisoquinoline-6-carboxamide]
- IC50 [1]: 4500 nM
- IC50 [2]: 390 nM

SMILES: COc1cc2c(OC[C@]34C[C@H]3CC(=O)N4)nccc2cc1C(N)=O [Example 30, 7-methoxy-1-{[(1S,5S)-3-oxo-2-azabicyclo[3.1.0]hex-1-yl]methoxy}isoquinoline-6-carboxamide]
- IC50 [1]: 4300 nM
- IC50 [2]: 151 nM

SMILES: NC(=O)c1cc2ccnc3c2cc1OCCOC[C@H]1C[C@@H](CO3)NC1=O [Example 28, (3S,6R)-5-oxo-2,3,4,5,6,7,9,10-octahydro-12,14-(ethanediylidene)-3,6-methanopyrido[2,3-l][1,4,11,8]trioxazacyclopentadecine-19-carboxamide]
- IC50 [1]: 1900 nM

SMILES: CC[C@@H]1CC(=O)N[C@@H]1COc1cncc2cc(C(N)=O)c(OC)cc12 [Example 25, 4-(((2S,3R)-3-ethyl-5-oxopyrrolidin-2-yl)methoxy)-6-methoxyisoquinoline-7-carboxamide]
- IC50 [1]: 47 nM
- IC50 [2]: 2.7 nM

SMILES: COc1cc2c(OC[C@H]3NC(=O)[C@@H](F)C34CC4)nccc2cc1C(N)=O [Example 24, 1-(((4S,7S)-7-fluoro-6-oxo-5-azaspiro[2.4]heptan-4-yl)methoxy)-7-methoxyisoquinoline-6-carboxamide]
- IC50 [1]: 5.2 nM
- IC50 [2]: 0.8 nM

SMILES: CNC(=O)c1cc2ccnc(OC[C@H]3NC(=O)[C@@H](F)[C@H]3C)c2cc1OC [Example 33, 1-(((2S,3S,4S)-4-fluoro-3-methyl-5-oxopyrrolidin-2-yl)methoxy)-7-methoxy-N-methylisoquinoline-6-carboxamide]
- IC50 [2]: 2000 nM
